# Assay: Stability in HPLC mobile phases
# Format: physicochemical
# Settings: HPLC mobile phases: MeOH/H2O/0.05% TFA, acetonitrile/H2O
# Description: • 1. The HPLC purity may not be true. […] The HPLC purity is greatly dependent upon the HPLC mobile phases. With MeOH/H2O/0.05% of TFA buffer, the HPLC purity is 90%. With MeOH/H2O mobile phase, the HPLC purity is 91.7%. With acetonitrile/H2O mobile phase, the HPLC purity is 99%. […] HPLC condition for the compound of Formula 2
row,Compound,stability under HPLC conditions
1,CO[C@H]1C[C@@H]2CC[C@@H](C)[C@@](O)(O2)C(=O)C(=O)N2CCCC[C@H]2C(=O)O[C@H]([C@H](C)C[C@@H]2CC[C@@H](OC(=O)CCCCCOC(=O)c3c(I)c(NC(C)=O)c(I)c(NC(C)=O)c3I)[C@H](OC)C2)CC(=O)[C@H](C)/C=C(\C)[C@@H](O)[C@@H](OC)C(=O)[C@H](C)C[C@H](C)/C=C/C=C/C=C/1C [Formula 2],not stable under some HPLC conditions
2,CO[C@H]1C[C@@H]2CC[C@@H](C)[C@@](O)(O2)C(=O)C(=O)N2CCCC[C@H]2C(=O)O[C@H]([C@H](C)C[C@@H]2CC[C@@H](O)[C@H](OC)C2)CC(=O)[C@H](C)/C=C(\C)[C@@H](O)[C@@H](OC)C(=O)[C@H](C)C[C@H](C)/C=C/C=C/C=C/1C [rapamycin],same stability issues in HPLC mobile phases

# — patent US11034701B2, “Drug delivery and imaging chemical conjugate, formulations and methods of use thereof” (NanoPhagix LLC, priority 2015, dated 2021)
